Results published in a melting point compilation (Tetko et al.; mined from patent text by program, amines drawn as free bases though some values may be those of a salt).

Row | melting point | SMILES
1 | 147 to 152 °C | CC(C)(C)C(=O)Nc1nc(CC(=O)Nc2cccc(C(F)(F)F)c2)cs1
2 | 81 to 83 °C | [N-]=[N+]=Nc1ccc(Cl)cc1C(=O)c1ccccc1
3 | 140 to 145 °C | O=C(O)Cc1c(Cl)nc(-c2ccc(O)cc2)n1Cc1ccccc1
4 | 49 to 50 °C | O=C(CCCCCl)c1ccccc1
5 | 100 °C | O=[N+]([O-])c1cc(S(=O)(=O)N(CCO)CCO)sc1Cl
6 | 184 to 186 °C | O=C(c1[nH]c2ccc(F)cc2c1Sc1ccccc1)N1CCCC1
7 | 145 to 147 °C | CC(C)OC(=O)N1CCC(c2nc3cc(-c4ccc(C(=O)NCCO)c(F)c4)ccc3o2)CC1
8 | 187 to 190 °C | Nc1nc(-c2ccccc2)c2ncn(C3OC(CO)C(O)C3O)c2n1 (centres undefined)
9 | 42 to 44 °C | CCOC(=O)CC(=O)c1cc(F)c(F)c(OC)c1F
10 | 136 to 137 °C | COc1cc(COc2cc(N)c(Cl)cc2C(=O)CCCCN2CCC(C)CC2)cc(OC)c1
11 | 239 to 240 °C | Cc1cc(-c2csc(-c3ccc(C(=O)O)cc3)n2)c(C)s1
12 | 179 to 180 °C | O=C1NC(Cc2c[nH]c3ccccc23)C(=O)N1CCCN1CCC(c2ccccc2)CC1 (centres undefined)
13 | 96 to 98 °C | N[C@@H]1C[C@H](C2CCCCC2)c2ccccc2NC1=O (relative stereo)
14 | 258 to 259 °C | CC(=O)c1c(F)cc2c(=O)c(C(=O)O)cn3c2c1OCC3C (centres undefined)
15 | 121 to 122 °C | OC(CCc1ccc(Br)cc1)Cn1ccnc1 (centres undefined)
16 | 92 to 94 °C | CCOC(=O)Oc1cc(C(C)(C)C)oc(=O)c1-c1c(C)cc(C)cc1C
17 | 160 to 163 °C | CCn1ncc2c(NCC3CCCCC3)c3cc(OCC4CO4)ccc3nc21 (centres undefined)
18 | 169 to 171 °C | CC(C)(C)OC(=O)N1CCC2(CC1)CC(c1ccc(C#N)cc1)=NO2
19 | 235 °C | COc1ccc(S(=O)(=O)C2(C(=O)O)CCN(Cc3ccc(-c4cccs4)cc3)CC2)cc1
20 | 143 to 145 °C | CCOc1cc2c(C)c(CCN3CCN(c4ccccc4OC)CC3)c(=O)oc2cc1OC
21 | 105 to 106 °C | O=C1CCc2cc(OCc3ccccc3)ccc21
22 | 131 °C | CC1=C(C(=O)OCc2ccccc2)C(c2ccccc2C(F)(F)F)c2c(ccnc2OC(C)C)N1 (centres undefined)
23 | 146 °C | O=C(O)CCc1cc2nc(Cl)ccc2n1S(=O)(=O)c1cccc(OC(F)(F)F)c1
24 | 169 to 171 °C | Cc1cccc(NC(=O)Nc2ccc(-c3c(C(C)C)sc4ncnc(N)c34)cc2)c1
25 | 130 to 132 °C | O=C1CCN(c2c(F)cc([N+](=O)[O-])cc2F)CC1

Row | melting point | SMILES
26 | 109 °C | N#CN=C(NCC(=O)O)Nc1cccc(Cl)c1
27 | 104 to 106 °C | O=Cc1c2c(cc3ccccc13)Cc1ccccc1-2
28 | 130 to 131 °C | COc1cc(C2OCC(C)(C)C2(O)C(C)(C)C)cc(OC)c1Br (centres undefined)
29 | 158 to 162 °C | N#Cc1ccc(-c2ccc(OC3SCC(O)C(O)C3O)c(F)n2)cn1 (centres undefined)
30 | 134 °C | COc1ccc(-n2c(=O)n(C)c(=O)n(CC(C)(C)C)c2=O)cc1
31 | 93 to 105 °C | CC1(C)Oc2ccc(C#N)cc2C(Oc2cccnn2)C1(C)O (centres undefined)
32 | 218 to 220 °C | COc1cc2c(cc1Br)-c1c(Br)c3c(n1CC2)C(=O)N(C(C)(C)C)CCC3
33 | 160 °C | COc1cc2c(cc1OC)CN(CCCOc1ccc(NC(=O)c3cccc4c(=O)c5cccc(C)c5[nH]c34)c(C)c1)CC2
34 | 156 to 157 °C | COc1ccc(NC(=O)CC23CC4CC(CC(C4)C2)C3)c(C)c1
35 | 190 to 192 °C | O=C(O)CNC(=O)CC1=C(n2nc(-c3c(-c4ccccc4)nn4ccccc34)ccc2=O)CCCC1
36 | 214 to 215 °C | CN1C(=O)NC2(CCCCC2)C1=O
37 | 75 to 78 °C | CCCC(Oc1ccc(Cl)c(C)c1)C(=O)NCc1ccccc1 (centres undefined)
38 | 166 °C | C/C(=N/O)[C@@H]1C[C@H](C(=O)OC(C)(C)C)N(C(=O)CNC(=O)Nc2cccc(C)c2)[C@@H]1c1ccccc1 (racemic)
39 | 115 to 116 °C | CC(=O)Oc1ccc(-c2ccc(C=C(Br)Br)s2)cc1
40 | 175 to 176 °C | Nc1cc(=O)n(Cc2cc(Cl)cc(Cl)c2)[nH]1
41 | 213 °C | CNc1nc2c(OCc3ccccc3)cccc2n1C
42 | 150 to 156 °C | CCCC(CCC)C(=O)N[C@H](C(=O)N[C@H]1CCO[C@@H]1OC)C(C)C
43 | 135 °C | COc1ccc(CNc2nc(CCC(=O)O)nc3sc4c(c23)CCCC4)cc1Cl
44 | 171 to 172 °C | O=C(O)[C@@H]1C[C@H]1/C=C\c1ccc(-c2nc3ccccc3o2)cc1 (relative stereo)
45 | 125 °C | COc1ccc(S(C)(=O)=O)cc1C(=O)NCC1CCCN1C12CCC(CC1)C2 (centres undefined)
46 | 195 to 196 °C | CN1C(=O)CC[C@]2(C)c3ccc(Sc4ccc5cc([N+](=O)[O-])ccc5n4)cc3CC[C@@H]12
47 | 70 to 72 °C | O=C(OCC=Cc1ccccc1)c1cccc2nnsc12
48 | 141 to 142 °C | CC#CC(C)(C)NC(=O)C(Oc1cc(Cl)nc(Cl)c1)SC (centres undefined)
49 | 180 °C | CC(C)(C#N)c1c(Cl)cc(-n2ncc(=O)[nH]c2=O)cc1Cl
50 | 201 to 202 °C | CC(=Cc1c[nH]c2ccc(CNS(C)(=O)=O)cc12)[N+](=O)[O-]

Row | melting point | SMILES
51 | 222 to 223 °C | Cn1c(COc2ccc(CC3SC(=O)NC3=O)cc2)nc2ccc(Cl)nc21 (centres undefined)
52 | 91 to 93 °C | CCCCCC(=O)c1cn(S(=O)(=O)c2ccc(C)cc2)c2ccccc12
53 | 235 to 236 °C | O=C1CSC(C(=O)Nc2ccc(Cl)cc2)Cc2ccc(Cl)cc21 (centres undefined)
54 | 218 °C | O=C(c1ccc(I)cc1)c1ccc(-c2ccc(Cl)cc2)cc1
55 | 188 to 190 °C | Nc1ccc(S(=O)(=O)Nc2cc(N)cc(N)c2)cc1
56 | 129 to 130 °C | Cc1cc(CCCCCCCOc2ccc(C(=O)O)cc2)on1
57 | 175 to 177 °C | O=C1c2ccc(OC3CCCCC3)cc2CCC1CN1CCC(O)(c2ccccc2)CC1 (centres undefined)
58 | 135 to 137 °C | CC(C)(OCc1nn(Cc2ccccc2)c2ccccc12)C(=O)N1CCOCC1
59 | 112 to 114 °C | CCOC(=O)C(=CNc1ccc2nccnc2c1)C(=O)OCC
60 | 161 to 162 °C | CN(CCCc1cc(F)c2ncc(C(=O)NCc3ccc(Cl)cc3)c(O)c2c1)Cc1ccccc1
61 | 111 to 113 °C | CNC(=O)c1ccccc1Sc1ccc(COC(C)=O)cc1[N+](=O)[O-]
62 | 99 to 101 °C | COc1cc(C(C)=O)ccc1OCCCCN1CCC(c2noc3ccccc23)CC1
63 | 117 to 120 °C | O=C(O)Cc1csc(NC(=O)C(F)(F)F)n1
64 | 129 to 131 °C | Cc1cc(SCc2cnc(-c3ccc(C(F)(F)F)cc3)nc2C2CC2)ccc1OC(C)(C)C(=O)O
65 | 213 to 214 °C | O=C(c1cc2ccccc2[nH]1)N1CCCCC1
66 | 126 to 128 °C | CC(C)Cc1cc2cc(O)ccc2c(Oc2ccc(/C=C/C(=O)O)cc2)c1-c1ccccc1
67 | 82 to 84 °C | Cc1cccc2c(C#N)csc12
68 | 90 to 91 °C | CCCCCCCCCCCCCc1nc(N)no1
69 | 63 to 65 °C | CCCc1c(OCCCSc2cccc(CC(=O)O)c2F)ccc(C(C)=O)c1O
70 | 214 to 215 °C | Cn1ncc2c1-c1c(Oc3ccc(OCc4ccc5ccccc5n4)cc3)sc(C(=O)O)c1CC2
71 | 115 to 118 °C | CC(C)(C)OC(=O)N[C@H]1CC[C@H](CCN2CCN(c3cccc4c3CCC4)CC2)CC1
72 | 152 to 154 °C | CCOCc1nc2c(N)nc3cc(-c4cccnc4)ccc3c2n1CC1CCCCN1S(C)(=O)=O (centres undefined)
73 | 198 to 200 °C | O=S(=O)(Nc1ccc2c(OCc3coc(-c4ccc(Cl)cc4)n3)cccc2c1)C(F)(F)F
74 | 179 to 181 °C | O=c1c2ccccc2[nH]n1C(c1ccccc1)c1ccccc1
75 | 140 to 145 °C | Cc1ccc(S(=O)C(C(=O)OC(C)(C)C)C(O)CC(OC2CCCCO2)c2ccc(Oc3ccccc3)cc2)cc1 (centres undefined)

Row | melting point | SMILES
76 | 109 to 110 °C | O=C(O)c1ccc(OCc2ccc(F)cc2)cc1
77 | 232 to 233 °C | O=C(Nc1cccnc1)N1CCN(c2nccc(-c3cccc(F)c3F)n2)CC1
78 | 94 to 95 °C | Cc1oc(-c2ccc(C(F)(F)F)cc2)nc1COc1ccc(CN(O)C(=O)NN)cc1
79 | 183 to 185 °C | Cn1cccc1-c1nc2cc(N)ccc2o1
80 | 296 to 305 °C | CC(=O)Nc1nc2c(s1)-c1c(cnn1-c1ccc(Cl)cc1)C2
81 | 110 to 112 °C | O=C(Nc1ccc2c(c1)OCO2)c1ccccc1
82 | 174 to 176 °C | CC1(C)CCC(NC(N)=O)CC1
83 | 130 to 133 °C | CCCc1c(OCCCC(=O)O)ccc(C(C)=O)c1O
84 | 220 °C | Cc1ccnc(N2CCN(CCc3c(-c4ccc(O)cc4)n4c5c(cccc35)CCC4)CC2)c1
85 | 177 to 178 °C | CCOC(=O)c1cn(CC)c2cc3c(cc2c1=O)OCO3
86 | 106 to 107 °C | Cc1cc(OC2SCC(O)C(O)C2O)cc(C)c1-c1ccncc1 (centres undefined)
87 | 88 to 89 °C | COc1ccc(CCNc2nc(NCc3cc(OC)cc(OC)c3)c3cccnc3n2)cc1
88 | 226 °C | COc1cccc(-c2nc(=O)c3ccccc3s2)n1
89 | 167 to 168 °C | CCOC=Cc1nc2c(=O)n(Cc3ccccc3)cnc2n1Cc1ccccc1
90 | 39 to 40 °C | CC(C)SCS(=O)C(C)C (centres undefined)
91 | 212 to 213 °C | CC1Cc2cc3c(cc2C(c2ccc([N+](=O)[O-])cc2)=NN1c1nncs1)OCO3 (centres undefined)
92 | 178 to 180 °C | ON=C(Cl)c1ccc(C(Cl)=NO)cc1
93 | > 275 °C | O=S(=O)(O)c1ccc(NCc2ccc(Cl)cc2Cl)cc1
94 | 127 to 129 °C | CCCn1ncnc1COc1nc2c(cc1C(C)(C)C)nnn2-c1ccccc1F
95 | 232 °C | COc1ccc(-c2nc(N)ncc2-c2ccc(=O)n(C)n2)cc1OC
96 | 193 to 195 °C | CCc1nc2c(N)nc3ccccc3c2n1CCCCS(=O)(=O)N(C)C
97 | 123 to 124 °C | N=C(Nc1cc(Cl)cc(NC(=O)/C=C/c2ccccc2Cl)c1)c1cccs1

Row | SMILES | melting point
98 | COc1ccc(C2=NCc3nncn3-c3ccc(Cl)cc32)cc1 | 216 to 217 °C
99 | O=[N+]([O-])c1cc(C2=NOC(c3cc(C(F)(F)F)cc(C(F)(F)F)c3)(C(F)(F)F)C2)ccc1N1C=NNN1 (centres undefined) | 147 to 149 °C
